These results are taken from US9957332B2, “Compositions and methods for treating cocaine-related disorders” (University of Cincinnati, priority 2006, dated 2018).

A short description of data set [1]: Cocaine pharmacokinetics in plasma and brain (GC/MS), absence of mAb. Conditions: for mean metabolite concentration in brain / mean metabolite concentration in plasma: 5 min after cocaine injection.
Description: Jugular vein catheterized male Swiss-Webster mice (22-28 g at the start of the studies) are purchased. Mice are housed individually with free access to food and water and kept on a 12 h light/dark cycle.
The antibody (3-5 mg/ml) in phosphate-buffered saline (PBS) or vehicle (PBS) is infused at a rate of approximately 0.35 ml/min for up to two min, depending on the antibody concentration and the body weight of the animal, with the animal held under mild restraint. One hour after completion of the infusion of mAb, cocaine HCl (0.56 mg/kg) plus heparin (400 units/kg) is injected intravenously through the same catheter at a volume of 4.0 ml/kg body weight. At most sampling times, sodium pentobarbital (45 mg/kg, i.p) is administered three minutes prior to sacrificing the animal. For the 0.75 min time point the cocaine is injected into anesthetized mice. At the designated times after the injection of cocaine, anesthetized mice are sacrificed by decapitation and trunk blood (typically 0.8-1.2 ml) is collected in a 1.5 ml polypropylene microcentrifuge tube containing 11.2 μl heparin (1.0 unit/μl) and NaF (16 mg/0.8 ml of blood) to inhibit, respectively, blood coagulation and enzymatic hydrolysis of cocaine. The blood samples are centrifuged at 5,000×g for 3 min, then the plasma (typically 0.4-0.8 ml) is carefully separated from packed red blood cells, placed into sterile 1.5 ml Eppendorf microcentrifuge tubes, rapidly frozen on dry ice and then stored at −80° C. until analysis.
The whole brain is quickly removed from the decapitated mice, surface blood is blotted away, and the brain is placed in a polypropylene tube, rapidly frozen on dry ice and then stored at −80° C. until analysis. For analysis, brains are weighed and cold deionized, distilled water added to produce a total volume of 1 ml, then homogenized and centrifuged at 13,000 rpm for 45 min at 4° C. The resulting supernatants (0.4-0.6 ml) are collected into sterile polypropylene microcentrifuge tubes and an aliquot (0.05-0.40 ml) is processed for cocaine/metabolite analysis by GC/MS and hemoglobin content. Any remaining sample is stored at −80° C.
In order to determine in vivo concentrations of cocaine and its metabolites BE and EME, following the i.v. injection of cocaine, 100-400 μl samples of heparinized/NaF treated plasma and 400 μl samples of brain homogenates obtained from cocaine-treated animals are added to 2 ml of 0.1 M Na phosphate buffer, pH 6.0. This is followed by the addition of 5% trichloroacetic acid at a volume equal to that of the experimental sample (100-400 μl). These mixtures are shaken for 20 minutes and then centrifuged for 15 min at 7000 rpm, all at room temperature, in order to precipitate the denatured protein. The supernatants are collected and adjusted to pH 5.4 with 10 M NaOH. Then to serve as internal standards for establishing the identification of cocaine and its metabolites as well as for normalization of the recovery of cocaine/metabolites from the mouse samples, 50 μl of a sample containing deuterated (D3) cocaine-D3, BE-D3 and EME-D3 (each at 1 μg/ml) is added to all of the experimental and the standard control samples before their undergoing solid-phase extraction/column elution. Duplicate, standard control tubes (2 ml) are also prepared containing; 0.1 M Na phosphate buffer, 50 μl of the internal standards D3 cocaine/BE/EME (1 μg/ml, each), 200 μl of normal mouse plasma and varying amounts of cocaine (1-500 ng) and used to generate the standard cocaine concentration curves. Similarly, standard concentration curves are also generated for BE and EME.
The target in data set [2] is anti-cocaine antibody (present antibodies). The experiment in a line: Competition assays with constant [3H]-cocaine and nonradioactive competitors at the antibody. The conditions noted are these: competition with [3H]-cocaine at antibody; read-out: binding inhibition constant (Ki). An excerpt:
(§1) In another embodiment, an antibody binds cocaine or a derivative thereof. […] Other examples of cocaine derivatives include: (−) cocaine; cocaine propyl ester; RTI-128; RTI-66; RTI-160; RTI-192; m-hydroxycocaine; WIN 35,065-2; WIN 35,428; RTI-31; RTI-32; RTI-55; RTI-111; m-hydroxybenzoylecgonine; p-hydroxybenzoylecgonine; RTI-113; tropine; benztropine; 4′,4″-difluoro-3α-diphenylmethoxytropane; hyoscyamine-N-oxide; methylanisotropine; tropisetronmethiodide; anisodine; scopotamine; scopotamine-N-oxide; methylscopolamine; N-butylscopolamine; (−) pseudococaine; (+) cocaine; norcaine; benzoylnorecgonine; (+) pseudococaine; ecgonidine; exo-6-hydroxytropinone; and methylcocaethylene.

The nature of data set [3]: Radioligand binding assay using antibody and [3H]-cocaine. The conditions noted are these: [3H]-cocaine radioligand binding; read-out: dissociation constant (Kd) for cocaine.
Description: as §1

Data set [4] is described as follows: Effect of 2E2 on cocaine metabolite concentrations in plasma and brain. The class given is in vivo. The conditions noted are these: mice.
Data set [5] can be described thus: 2E2 in vivo pharmacokinetics, blood mAb by ELISA. The conditions noted are these: mice.
Description: Then at varying times, to obtain blood samples for mAb quantification, the mice are anesthetized using isoflurane and a sterile 27-gauge hypodermic needle or, alternatively, a sterile scalpel blade is used to puncture or make a small cut in a tail vein and 10 μl of blood is collected using a heparinized capillary pipette tip. The blood is immediately placed in a 1.5 ml polypropylene microcentrifuge tube containing 40 μl of 0.1 M sodium citrate/0.1% sodium azide pH 4.75. These samples are then rapidly placed on ice and then stored at 4° C. until use.
Briefly, the conjugate benzoylecgonine-ovalbumin (3 μg/ml, 100 μl/well) in 1 mM EGTA pH 7.4 is adsorbed onto PVC 96-well microtiter plates for 1 hr. The plates are then washed 3 times with, and all wells exposed for 10 min to, 0.5% BSA in TBS (10 mM Tris, 140 mM NaCl and 0.02% NaN3, pH 6.9) in order to block non-specific protein binding. The second layer, 100 μl/well of the blood samples diluted (1:500) into BSA-TBS, is added and the sample is incubated for 2 hr. […] The plates are washed with a Solution A, containing 0.5% BSA, 10 mM sodium phosphate, 145 mM NaCl, 1.5 mM MgCl2, 0.05% triton X-100 and 0.02% NaN3, pH 7.2. Then 50 μl/well of affinity-purified biotinylated goat anti-human IgG diluted 1:500 in Solution A is added and incubated for 1 hr. After washing, 50 μl/well of streptavidin-alkaline phosphatase, diluted (1:200) in Solution A, is added, incubated for 1 hr and removed. Then 50 μl/well of the colorimetric reaction mixture, comprised of the substrate para-nitrophenylphosphate (1 mg/ml) in substrate buffer (50 mM Na2CO3, 50 mM NaHCO3 1 mM MgCl2 at pH 9.8), is added. After 6-8 min the reaction is stopped with 1M sodium hydroxide (50 μl/well). […] The reaction endpoint is measured with an ELISA reader at a wavelength of 405 nm. […]
The program provides Akaike Information Criterion (AIC) and Schwartz Bayesian Criterion (SBC) measures of “goodness of fit” of the data to the one or two compartment pharmacokinetic models that are used. Data are first analyzed according to a single compartment pharmacokinetic model.
A short description of data set [6]: Effect of infused mAbs on plasma and brain cocaine concentrations and pharmacokinetics. In kind it is in vivo, mice.
[7] abbreviates: mice, 5 min after i.v. cocaine, stoichiometric mAb dose.

As to `CN1[C@H]2CC[C@@H]1[C@@H](C(=O)O)[C@@H](OC(=O)c1ccccc1)C2` [benzoylecgonine], in data set [1] (mice, absence of 2E2), the “mean metabolite concentration in brain” value came to 16 ng/g and the “mean metabolite concentration in plasma” value amounted to 7 ng/mL. Further, the Ki in data set [2] is 43 nM.
With “2E2: anti-cocaine mAb with human gamma heavy chain (SEQ ID NO: 2) and murine lambda light chain (SEQ ID NO: 1)”, in data set [3], the dissociation constant Kd was determined as 4 nM. Moreover, the “effect of 2E2 dose on brain EME concentrations” value in data set [4] is recorded as “no systematic effect”. In addition, in data set [4] (2E2 doses above 40 mg/kg), the “effect on brain BE concentrations” value is reported as “concomitant decrease”. Further, in data set [4] (highest dose of 2E2), the “reduction in plasma EME concentrations” value is on record as roughly 2 fold. For the same compound, the “increase in plasma BE concentrations” value in data set [4] (increasing doses of 2E2, plateau above 40 mg/kg) is recorded as roughly 3 fold. Further, in data set [5] (120 mg/kg i.v. infusion, single compartment model), the “elimination t1/2 of 2E2 in blood” value was determined as 194 h. In data set [5] (120 mg/kg i.v., 3 minutes after infusion, n=8), the “initial blood concentration of mAb (mean±SEM)” value is 370 ± 17 µg/mL. Further, the “mean blood concentration of 2E2” value in data set [5] (120 mg/kg i.v., 24 hours after infusion) turned out to be 422 ± 21 µg/mL. In addition, the “brain cocaine concentration at highest mAb dose” value in data set [6] (mice, 360 mg/kg (3:1 mAb:drug), corrected for residual blood) is given as “negligible”. Also, the “increase in plasma cocaine concentrations” value in data set [6] (mice, 2E2 12 mg/kg (1:10 mAb:cocaine), 5 min) stood at 5.1 fold. The “decrease in brain cocaine concentrations” value in data set [6] (mice, 2E2 24 mg/kg, 5 min) came out at 35%. The “peak plasma cocaine concentration, presence vs absence of 2E2” value in data set [6] (mice, 2E2 120 mg/kg) amounted to 11.3 fold. Besides, the “t1/2 of cocaine in plasma in the presence of mAb” value in data set [6] (mice, 2E2 120 mg/kg (equimolar), single compartment model) is reported as 17.1 min. Moreover, the “peak plasma cocaine concentration in the presence of 2E2” value in data set [6] (mice, 2E2 120 mg/kg, 45 sec after cocaine […] i.v.) is listed as ~1,100 ng/ml. Also, in data set [6] (mice, 2E2 120 mg/kg, earliest sample time), the “peak brain cocaine concentration in the presence of 2E2” value was roughly 490 ng/g. In data set [6] (mice, 2E2 120 mg/kg, single compartment model), the “elimination t1/2 of cocaine in brain in the presence of 2E2” value turned out to be 3.8 min. Moreover, the “increase in plasma cocaine concentrations” value in data set [6] (mice, 2E2 360 mg/kg (3:1 ratio), 5 min) came to 46.1 fold. In data set [6] (mice, 5 min, Table 1), the “decrease in brain cocaine concentration vs vehicle controls” value is roughly 5 fold and the “increase in plasma cocaine concentration vs vehicle controls” value was found to be 29 fold. Moreover, in data set [6] (setting [7]), the “Change from vehicle (brain cocaine concentration)” value is reported as −4.8-fold and the “Change from vehicle (plasma cocaine concentration)” value is reported as “+28.7-fold”. The “Vdss of cocaine in the presence of mAb” value in data set [6] (mice, equimolar dose of 2E2) is 0.2 L/kg. In addition, the “increase in plasma cocaine AUC” value in data set [6] (mouse, in vivo) was found to be 26 fold.
Turning to `COC(=O)[C@H]1[C@@H](OC(=O)c2ccccc2)C[C@@H]2CC[C@H]1N2C` [cocaine], the half-life was determined as 2 min in data set [1] (male, Swiss-Webster, mouse, brain, iv, […], t1/2 for entry (input) of cocaine into the brain, mice, absence of 2E2); 1.9 min in data set [1] (male, Swiss-Webster, mouse, plasma, iv, […], plasma distribution half-life (t1/2α) of cocaine, mice, cocaine HCl […] i.v., absence of 2E2, two-compartment model); 26.1 min in data set [1] (male, Swiss-Webster, mouse, plasma, iv, […], plasma terminal elimination half-life (t1/2β) of cocaine, mice, cocaine HCl […] i.v., absence of 2E2, two-compartment model). Moreover, the Vd in data set [1] (male, Swiss-Webster, mouse, plasma, iv, […]) is 6 L/kg. Besides, in data set [1] (mice, cocaine HCl […] i.v., absence of 2E2, two-compartment model), the “plasma terminal elimination half-life (t1/2β) of cocaine” value is on record as 26 min. Besides, the “brain t1/2α of cocaine” value in data set [1] (mice, i.v., absence of 2E2, two-compartment model) was determined as 2.0 min. For the same compound, in data set [1] (mice, i.v., at 3 min, absence of 2E2), the “highest measured brain cocaine concentration” value is listed as ~1,500 ng/g. Also, the “highest plasma cocaine concentration” value in data set [1] (mice, i.v., earliest sample time (45 sec), absence of 2E2) is roughly 110 ng/mL. Moreover, in data set [1] (mouse, in vivo, iv), the “brain t1/2β of cocaine” value is 14.5 min.
As for `CCOC(=O)[C@@H]1C2CCC(C[C@@H]1OC(=O)c1ccccc1)N2C` (stereo partly shown) [cocaethylene], the Ki in data set [2] was determined as 3.4 nM.
Turning to `COC(=O)[C@@H]1[C@H]2CC[C@@H](C[C@@H]1O)N2C` [ecgonine methyl ester], in data set [1] (mice, absence of 2E2), the “mean metabolite concentration in brain” value came to 267 ng/g and the “mean metabolite concentration in plasma” value worked out at 25 ng/mL. Moreover, in data set [2], the Ki came out at 5200 nM.
With `CN1[C@H]2CC[C@@H]1[C@@H](C(=O)O)[C@@H](O)C2` [ecogonine], the Ki in data set [2] is 95000 nM.
